Source: PubChem BioAssay AID2060885 (Molecular Pharmacology Branch, DTP, NCI, 2025)
Values joined by “and” are separate entries in the source; they are usually repeats but may differ in a detail not shown here. Identical values can stand only once.

Test system: NCI-H23 complex spheroids with HUVEC/MSC, viability
Experiment: Anticancer human tumor NCI-H23 cell line growth inhibition [RAS];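 also: spheroids exposed to compound for 7 days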;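 as to viability, T/C: 100% = DMSO vehicle control viability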
Details: for viability, T/C: stronger effect = lower value
Outline: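 Agents were tested in combination matrices in half-log decrements from a top concentration at or near clinical Cmax (10 microM if undetermined). Targets were multi-cell spheroids of tumour lines plus HUVEC and MSC stromal cells.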

[1] = curve of first compound, second compound 0.000949 µM
[2] = curve of first compound, second compound 0.003 µM
[3] = curve of first compound, second compound 0.00949 µM
[4] = curve of first compound, second compound 0.03 µM
[5] = curve of first compound, second compound 0.0949 µM
[6] = curve of first compound, second compound 0.3 µM
[7] = second compound 0.000949 µM, first compound 0.0316 µM
[8] = second compound 0.000949 µM, first compound 0.1 µM
[9] = second compound 0.000949 µM, first compound 0.316 µM
[10] = second compound 0.000949 µM, first compound 1 µM
[11] = second compound 0.000949 µM, first compound 3.16 µM
[12] = second compound 0.000949 µM, first compound 10 µM
[13] = second compound 0.003 µM, first compound 0.0316 µM
[14] = second compound 0.003 µM, first compound 0.1 µM
[15] = second compound 0.003 µM, first compound 0.316 µM
[16] = second compound 0.003 µM, first compound 1 µM
[17] = second compound 0.003 µM, first compound 3.16 µM
[18] = second compound 0.003 µM, first compound 10 µM
[19] = second compound 0.00949 µM, first compound 0.0316 µM
[20] = second compound 0.00949 µM, first compound 0.1 µM
[21] = second compound 0.00949 µM, first compound 0.316 µM
[22] = second compound 0.00949 µM, first compound 1 µM
[23] = second compound 0.00949 µM, first compound 3.16 µM
[24] = second compound 0.00949 µM, first compound 10 µM
[25] = second compound 0.03 µM, first compound 0.0316 µM
[26] = second compound 0.03 µM, first compound 0.1 µM
[27] = second compound 0.03 µM, first compound 0.316 µM
[28] = second compound 0.03 µM, first compound 1 µM
[29] = second compound 0.03 µM, first compound 3.16 µM
[30] = second compound 0.03 µM, first compound 10 µM
[31] = second compound 0.0949 µM, first compound 0.0316 µM
[32] = second compound 0.0949 µM, first compound 0.1 µM
[33] = second compound 0.0949 µM, first compound 0.316 µM
[34] = second compound 0.0949 µM, first compound 1 µM
[35] = second compound 0.0949 µM, first compound 3.16 µM
[36] = second compound 0.0949 µM, first compound 10 µM
[37] = second compound 0.3 µM, first compound 0.0316 µM
[38] = second compound 0.3 µM, first compound 0.1 µM
[39] = second compound 0.3 µM, first compound 0.316 µM
[40] = second compound 0.3 µM, first compound 1 µM
[41] = second compound 0.3 µM, first compound 3.16 µM
[42] = second compound 0.3 µM, first compound 10 µM

## CCC(CC)c1cc(NC2CCC(N)C2)n2nccc2n1 (stereo unspecified) + CCn1c(-c2cc(N3CCN(C)CC3)cnc2C(C)OC)c2c3cc(ccc31)-c1csc(n1)CC(NC(=O)C1CC1C)C(=O)N1CCCC(N1)C(=O)OCC(C)(C)C2
[1]
  IC50: < 31.6 nM
[2]
  IC50: < 31.6 nM
[3]
  IC50: < 31.6 nM
[4]
  IC50: < 31.6 nM
[5]
  IC50: < 31.6 nM
[6]
  IC50: < 31.6 nM
[7]
  viability, T/C: 46.5%
[8]
  viability, T/C: 50.7%
[9]
  viability, T/C: 40.9%
[10]
  viability, T/C: 41.2%
[11]
  viability, T/C: 2.33%
[12]
  viability, T/C: 0.49%
[13]
  viability, T/C: 37.7%
[14]
  viability, T/C: 33.8%
[15]
  viability, T/C: 34%
[16]
  viability, T/C: 36.4%
[17]
  viability, T/C: 2.67%
[18]
  viability, T/C: 0.37%
[19]
  viability, T/C: 36.3%
[20]
  viability, T/C: 33.7%
[21]
  viability, T/C: 34.2%
[22]
  viability, T/C: 35.7%
[23]
  viability, T/C: 1.63%
[24]
  viability, T/C: 0.42%
[25]
  viability, T/C: 30.1%
[26]
  viability, T/C: 24.9%
[27]
  viability, T/C: 31.1%
[28]
  viability, T/C: 28.3%
[29]
  viability, T/C: 0.59%
[30]
  viability, T/C: 0.54%
[31]
  viability, T/C: 22.9%
[32]
  viability, T/C: 23.2%
[33]
  viability, T/C: 24.7%
[34]
  viability, T/C: 25.4%
[35]
  viability, T/C: 0.87%
[36]
  viability, T/C: 0.64%
[37]
  viability, T/C: 19%
[38]
  viability, T/C: 20.5%
[39]
  viability, T/C: 22.4%
[40]
  viability, T/C: 19%
[41]
  viability, T/C: 1.45%
[42]
  viability, T/C: 0.47%

## CC(Nc1ccc2c(c1)OCCn1cc(N3C(=O)OCC3C(F)F)nc1-2)C(N)=O (stereo unspecified) + CCn1c(-c2cc(N3CCN(C)CC3)cnc2C(C)OC)c2c3cc(ccc31)-c1csc(n1)CC(NC(=O)C1CC1C)C(=O)N1CCCC(N1)C(=O)OCC(C)(C)C2
[1]
  IC50: < 31.6 nM
[2]
  IC50: < 31.6 nM
[3]
  IC50: < 31.6 nM
[4]
  IC50: < 31.6 nM
[5]
  IC50: < 31.6 nM
[6]
  IC50: < 31.6 nM
[7]
  viability, T/C: 38.9%
[8]
  viability, T/C: 34.7%
[9]
  viability, T/C: 29.4%
[10]
  viability, T/C: 35.1%
[11]
  viability, T/C: 33.6%
[12]
  viability, T/C: 21.6%
[13]
  viability, T/C: 34.9%
[14]
  viability, T/C: 24.6%
[15]
  viability, T/C: 25.3%
[16]
  viability, T/C: 25.1%
[17]
  viability, T/C: 23.1%
[18]
  viability, T/C: 17.6%
[19]
  viability, T/C: 31.1%
[20]
  viability, T/C: 24.5%
[21]
  viability, T/C: 21.1%
[22]
  viability, T/C: 22.5%
[23]
  viability, T/C: 23.3%
[24]
  viability, T/C: 16.7%
[25]
  viability, T/C: 25.5%
[26]
  viability, T/C: 19.6%
[27]
  viability, T/C: 19%
[28]
  viability, T/C: 19.2%
[29]
  viability, T/C: 13.9%
[30]
  viability, T/C: 14.5%
[31]
  viability, T/C: 16.9%
[32]
  viability, T/C: 14.9%
[33]
  viability, T/C: 13.6%
[34]
  viability, T/C: 15.2%
[35]
  viability, T/C: 10%
[36]
  viability, T/C: 10.8%
[37]
  viability, T/C: 14%
[38]
  viability, T/C: 13.3%
[39]
  viability, T/C: 12.8%
[40]
  viability, T/C: 13%
[41]
  viability, T/C: 11.9%
[42]
  viability, T/C: 11.4%

## CCC(CC)c1cc(NC2CCC(N)C2)n2nccc2n1 (stereo unspecified)
Compound 0.0316 µM
  viability, T/C: 106% and 101% and 105% (2×)
Compound 0.1 µM
  viability, T/C: 108% [middle of 4 runs]
Compound 0.316 µM
  viability, T/C: 101% [middle of 4 runs]
Compound 1 µM
  viability, T/C: 88.2% [middle of 4 runs]
Compound 3.16 µM
  viability, T/C: 15.2% [middle of 4 runs]
Compound 10 µM
  viability, T/C: 0.91% [middle of 4 runs]
Curve of compound
  IC50: 1.81 µM [middle of 4 runs]
